Each structure is given as a SMILES string.

This assay has as its target HIV-1 protease (Human immunodeficiency virus type 1 group M subtype B, UniProt P04585). As to the kind of experiment: Biological assay for inhibition of microbial expressed viral protease (HIV-1 protease). The class given is biochemical. From the text:
Insofar as compounds of the invention are able to inhibit the replication of the HIV virus in human T-cells and furthermore, may be delivered orally to mammals, they are of evident clinical utility for the treatment of HIV infection. These tests are predictive of the compounds ability to inhibit HIV protease in vivo. We have measured the inhibition constants of each compound against HIV-1 protease using essentially the method described by M. W. Pennington et al., Peptides 1990, Gimet, E. and D. Andrew, Eds., Escom; Leiden, Netherlands (1990).
Biological Assay for Inhibition of Microbial Expressed Viral Protease
The inhibition constants against HIV-1 protease were measured using the method described by M. V. Toth and G. R. Marshall, Int. J. Peptide protein Res., 1990, 544. The method described M. W. Pennington et al., Peptides 1990, Gimet, E. and D. Andrew, Eds., Escom; Leiden, Netherlands (1990) may also be used. Inhibition is measured as IC50 in μM. The person of skill would accept these tests as predictive of the compounds' utility in vivo to treat HIV infected patients.
A word on the IC50: it is the concentration that gives 50% inhibition. Read a low IC50 as higher potency. For `CC(C)(C)OC(=O)NC(Cc1ccccc1)C(O)C1SCCN1S(=O)(=O)c1cccc2cccnc12` (stereo not shown) [EP-001153], the IC50 lay within 5 to 20 µM.

For `CC(C)(C)OC(=O)NC(Cc1ccccc1)C(O)C1SCCN1S(=O)(=O)c1ccc(OC(F)(F)F)cc1` (stereo not shown) [EP-001155], the IC50 lay within 5 to 20 µM. Regarding `CC(C)(C)OC(=O)NC(Cc1ccccc1)C(O)C1SCCN1S(=O)(=O)c1ccccc1` (stereo not shown) [EP-001156], the IC50 is less than 5 µM. With `CC(C)(C)OC(=O)NC(Cc1ccccc1)C(O)C1SCCN1S(=O)(=O)c1ccc([N+](=O)[O-])cc1` (stereo not shown) [EP-001157], the IC50 is less than 5 µM. The molecule `CC(C)c1ccc(S(=O)(=O)N2CCSC2C(O)C(Cc2ccccc2)NC(=O)OC(C)(C)C)cc1` (stereo not shown) [EP-001159] had an IC50 of 5 to 20 µM. Then `Cc1c(O)cccc1C(=O)NC(Cc1ccccc1)C(O)C1SCCN1S(=O)(=O)c1ccc(F)cc1` (stereo not shown) [EP-001161], with less than 5 µM. As for `Cc1cccc(C)c1OCC(=O)NC(Cc1ccccc1)C(O)C1SCCN1S(=O)(=O)c1ccc(F)cc1` (stereo not shown) [EP-001162], the figure is less than 5 µM; as for `O=C(COc1ccccc1)NC(Cc1ccccc1)C(O)C1SCCN1S(=O)(=O)c1ccc(F)cc1` (stereo not shown) [EP-001163], greater than 20 µM; as for `CC(Oc1ccccc1)C(=O)NC(Cc1ccccc1)C(O)C1SCCN1S(=O)(=O)c1ccc(F)cc1` (stereo not shown) [EP-001164], greater than 20 µM. In the case of `O=C(COc1cccc2ccccc12)NC(Cc1ccccc1)C(O)C1SCCN1S(=O)(=O)c1ccc(F)cc1` (stereo not shown) [EP-001165], the IC50 was greater than 20 µM. Molecule `O=C(COc1ccc2ccccc2c1)NC(Cc1ccccc1)C(O)C1SCCN1S(=O)(=O)c1ccc(F)cc1` (stereo not shown) [EP-001166] yielded an IC50 greater than 20 µM.

The molecule `O=C(NC(Cc1ccccc1)C(O)C1SCCN1S(=O)(=O)c1ccc(F)cc1)OC1CCOC1` (stereo not shown) [EP-001169] had an IC50 of less than 5 µM. Regarding `O=C(Cc1ccccc1)NC(Cc1ccccc1)C(O)C1SCCN1S(=O)(=O)c1ccc(F)cc1` (stereo not shown) [EP-001171], the IC50 was greater than 20 µM.

Molecule `CC(C)(C)OC(=O)NC(Cc1ccccc1)C(O)C1SCCN1S(=O)(=O)c1ccc(N)cc1` (stereo not shown) [EP-001172] yielded an IC50 of less than 5 µM.

With `COCCOC(=O)NC(Cc1ccccc1)C(O)C1SCCN1S(=O)(=O)c1ccc(F)cc1` (stereo not shown) [EP-001184], the IC50 is less than 5 µM. In the case of `Cc1c(O)cccc1C(=O)NC(Cc1ccccc1)C(O)C1SCCN1S(=O)(=O)c1ccc(N)cc1` (stereo not shown) [EP-001195], the IC50 is less than 5 µM.

The values are drawn from patent US6673821B2, “Nitrogen heterocycle inhibitors of aspartyl protease” (Enanta Pharmaceuticals, Inc., priority 2001, dated 2004).
